What follows are compounds tested against T1, human bradykinin B2 receptor (hB2R) (Homo sapiens, UniProt P30411) (assay: cell-based human bradykinin B2 receptor calcium mobilization (hB2R-CaM) assay). Conditions: antagonistic activity; HTS041C cells; bradykinin at EC80; 25 min preincubation at 37° C.; read-out: IC50-value towards human bradykinin B2 receptor (hB2R).
T1 sequence (P30411 1-391): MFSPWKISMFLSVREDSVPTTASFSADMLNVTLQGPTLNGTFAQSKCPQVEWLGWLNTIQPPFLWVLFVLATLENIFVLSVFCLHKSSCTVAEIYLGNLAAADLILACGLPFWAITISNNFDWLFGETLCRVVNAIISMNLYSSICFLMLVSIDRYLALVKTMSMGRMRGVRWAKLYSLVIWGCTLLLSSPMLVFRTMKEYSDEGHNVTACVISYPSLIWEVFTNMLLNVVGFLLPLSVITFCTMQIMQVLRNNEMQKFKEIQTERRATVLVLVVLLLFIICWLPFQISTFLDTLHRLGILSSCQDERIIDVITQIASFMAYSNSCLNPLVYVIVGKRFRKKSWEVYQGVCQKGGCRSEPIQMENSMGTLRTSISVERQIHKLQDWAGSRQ
From the text: The following cell-based human bradykinin B2 receptor calcium mobilization (hB2R-CaM) assay was used to determine the antagonistic activity of compounds selected from the example compounds Nos. 1 to 13 towards human bradykinin B2 receptor (hB2R). The assay is defined herein as a standard in vitro B2 receptor activity assay, which can be used to determine IC50 values of the compounds according to the present invention, e. g. the compounds shown in Examples 1-4.
The antagonistic activity of compounds according to the present invention was investigated with the hB2R-CaM assay using the B2 Bradykinin Receptor Stable Cell Line HTS041C (Eurofins, St. Charles MO) and the FLIPR Calcium 6 Assay Kit (Molecular Devices, Wokingham, UK) according to the instructions of the providers. CaM assay measurements were performed with a Flexstation 3 System (Molecular Devices) which allows the precise addition of compounds (B2R antagonists) and bradykinin (B2R agonist) to the cells and adjacent continuous recording of the time-dependent CaM assay signals.
HTS041C cells were cultured in high glucose DMEM cell culture medium (Lonza) supplemented with 10% heat-inactivated FBS (PAN Biotech), 10 mM HEPES, Penicillin/Streptomycin (200 U/mL, 200 μg/mL), 1× non-essential amino acids (Lonza), and 250 μg/mL G418 (Invivogen) in cell incubator at 37° C. in a 5% CO2 atmosphere. One day before the CaM assay experiments cells were seeded in 200 μL DMEM cell culture medium with reduced FBS (5%) and without G418 on clear bottom black 96 well plates (ThermoFisher #165305). Cell starvation was carried out by incubation (37° C., 5% CO2) of 70.000 cells/well for 24 h to 28 h. Immediately prior calcium dye-loading the medium was carefully aspirated and cells were washed with Hank's balanced salt solution (HBSS, Gibco) containing Ca^2+, Mg^2+ and 20 mM HEPES, adjusted to pH 7.4 (HBSS+).
For calcium dye-loading one FLIPR 6 assay aliquot was dissolved in 20 mL HBSS+. 150 μL of the dye loading solution was added to cell plate and incubated for 120 min at 37° C. and 5% CO2. After dye loading the cell plate was immediately transferred to the pre-warmed (37° C.) Flexstation 3 System for CaM assaying.
Freshly prepared compound (B2 receptor antagonists) dilution series (8 pt, n=2) and bradykinin (B2 receptor agonist) solution in non-binding plates (Costar) were transferred to the Flexstation System (source plate) shortly before starting the experiment. Bradykinin was added in EC80 concentration determined in n>3 preliminary experiments with 8 pt concentration response curves (n=8)). CaM assay was executed by Flexstation 3 System starting with recording of calcium-sensitive dye fluorescence in bottom-read Flex modus with ex/em=485 nm/525 nm, cut off(em)=515 nm After 20 s, 50 μL of 4-fold concentrated compound dilutions were added to the cells resulting in a final DMSO (Sigma) concentration of 0.1% in the cell plate. CaM signals were monitored for 80 s after additions for detection of potential agonistic activities. Prior to bradykinin stimulus compound- and vehicle-treated cells were incubated for 25 min at 37° C. within the Flexstation System. Then 50 μL of a 5-fold concentrated bradykinin solution (HBSS+, 0.1% DMSO) was added to trigger CaM signals (Read out: Max-Min values) which were measured for 80 s post bradykinin stimulus.
IC50 determinations were performed by 4 parameter logistic model curve fitting of the 8 pt (n=2) compound concentration response curves using XLFIT (IDBS) software.

Row | Structure (SMILES) | IC50
1 | CC1=N[C@H](c2cc(F)cc(Cl)c2COc2cccc3c(-n4cc(F)cn4)cc(C)nc23)CO1 [Compound No. 3, (R)-4-(3-chloro-5-fluoro-2-((4-(4-fluoro-1H-pyrazol-1-yl)-2-methylquinolin-8-yloxy)methyl)phenyl)-2-methyl-4,5-dihydrooxazole] | 0.501 to 5 µM
2 | Cc1cc(-n2cc(F)cn2)c2cccc(OCc3c(Cl)cc(F)cc3[C@@H]3COCCN3)c2n1 [compound 5] | 0.501 to 5 µM
3 | Cc1cc(-n2cc(F)cn2)c2cccc(OCc3c(Cl)cc(F)cc3[C@@H]3COCC(=O)N3)c2n1 [compound 4] | 0.501 to 5 µM
4 | Cc1cc(-n2cc(F)cn2)c2cccc(OCc3c(Cl)cc(F)cc3[C@@H]3COCCN3C(=O)[C@@H](C)O)c2n1 [compound 6] | 0.026 to 0.5 µM
5 | Cc1cc(-n2cc(F)cn2)c2cccc(OCc3c(Cl)cc(F)cc3[C@@H]3COCCN3C(=O)C(C)(C)O)c2n1 [compound 7] | 0.026 to 0.5 µM
6 | Cc1cc(-c2ncnn2C)c2cccc(OCc3c(Cl)cc(F)cc3[C@@H]3COCCN3C(=O)C(C)(C)O)c2n1 [compound 9] | 0.026 to 0.5 µM
7 | Cc1cc(-c2ncnn2C)c2cccc(OCc3c(Cl)cc(F)cc3[C@@H]3COCCN3)c2n1 [compound 13] | 0.026 to 0.5 µM

Next, values leading:

Row | IC50 | Structure (SMILES)
8 | ≤ 0.025 µM | Cc1cc(-c2ncnn2C)c2cccc(OCc3c(Cl)cc(F)cc3[C@@H]3COCCN3C(=O)[C@H](C)O)c2n1 [compound 10]
9 | 0.026 to 0.5 µM | Cc1cc(-c2ncnn2C)c2cccc(OCc3c(Cl)cc(F)cc3[C@@H]3COCC(=O)N3)c2n1 [compound 12]
10 | ≤ 0.025 µM | Cc1cc(-c2ncnn2C)c2cccc(OCc3c(Cl)cc(F)cc3[C@@H]3COCCN3C(=O)COC(F)F)c2n1 [Compound No. 2, (R)-1-(3-(3-chloro-5-fluoro-2-((2-methyl-4-(1-methyl-1H-1,2,4-triazol-5-yl)quinolin-8-yloxy)methyl)phenyl)morpholino)-2-(difluoromethoxy)ethanone]
11 | 0.026 to 0.5 µM | Cc1cc(-n2cc(F)cn2)c2cccc(OCc3c(Cl)cc(F)cc3[C@@H]3COCCN3C(=O)c3cnco3)c2n1 [compound 8]
12 | ≤ 0.025 µM | Cc1cc(-n2cc(F)cn2)c2cccc(OCc3c(Cl)cc(F)cc3[C@@H]3COCCN3C(=O)COC(F)F)c2n1 [Compound No. 1, (R)-1-(3-(3-chloro-5-fluoro-2-((4-(4-fluoro-1H-pyrazol-1-yl)-2-methylquinolin-8-yloxy)methyl)phenyl)morpholino)-2-(difluoromethoxy)ethanone]
13 | ≤ 0.025 µM | Cc1cc(-c2ncnn2C)c2cccc(OCc3c(Cl)cc(F)cc3[C@@H]3COCCN3C(=O)c3cnco3)c2n1 [compound 11]
14 | ≤ 0.025 µM | [2H][C@@]1(c2cc(F)cc(Cl)c2COc2cccc3c(-n4cc(F)cn4)cc(C)nc23)COCCN1C(=O)COC(F)F [Compound No. 1A, 1-[(3R)-3-[3-chloro-5-fluoro-2-({[4-(4-fluoropyrazol-1-yl)-2-methylquinolin-8-yl]oxy}methyl)phenyl](3-deutero)morpholin-4-yl]-2-(difluoromethoxy)ethanone]

— patent US12391681B2, “(R)-3-(3-chloro-5-fluoro-2-((4-(1h-pyrazol-1-yl)-2-methylquinolin-8-yloxy)methyl)phenyl)morpholine derivatives and related compounds as bradykinin (BK) B2 receptor antagonist for treating skin diseases” (Pharvaris GmbH, priority 2019, dated 2025)
